Measured values: ChEMBL document CHEMBL1137136, “Change in liver and plasma ceramides during D-galactosamine-induced acute hepatic injury by LC-MS/MS” (2004)
“And” between values parts separate entries of the source, which are not always exact repeats. Equal values may be shown once.

Experiments:
Format in all cases: functional
[1] = tested on: Rattus norvegicus; assay: Concentration of C22:1 ceramide in plasma of D-galactosamine treated rats after 18 hr at dose of 1 g/kg intraperitoneally
[2] = tested on: Rattus norvegicus; assay: Plasma GPT level was observed after 18 hr of D-galactosamine administration at 1 g/kg intraperitoneally
[3] = tested on: Rattus norvegicus; assay: Concentration of C20:0 ceramide in plasma of D-galactosamine treated rats after 24 hr at dose of 1 g/kg intraperitoneally
[4] = tested on: Rattus norvegicus; assay: Concentration of C22:2 ceramide in liver of D-galactosamine treated rats after 24 hr at dose of 1 g/kg intraperitoneally
[5] = tested on: Rattus norvegicus; assay: Concentration of C24:2 ceramide in liver of D-galactosamine treated rats after 24 hr at dose of 1 g/kg intraperitoneally
[6] = tested on: Rattus norvegicus; assay: Concentration of C18:0 ceramide in liver of D-galactosamine treated rats after 24 hr at dose of 1 g/kg intraperitoneally
[7] = tested on: Rattus norvegicus; assay: Concentration of C22:1 ceramide in liver of D-galactosamine treated rats after 18 hr at dose of 1 g/kg intraperitoneally
[8] = tested on: Rattus norvegicus; assay: Concentration of C24:0 ceramide in plasma of D-galactosamine treated rats after 24 hr at dose of 1 g/kg intraperitoneally
[9] = tested on: Rattus norvegicus; assay: Concentration of C18:0 ceramide in plasma of D-galactosamine treated rats after 24 hr at dose of 1 g/kg intraperitoneally
[10] = tested on: Rattus norvegicus; assay: Concentration of C18:0 ceramide in plasma of D-galactosamine treated rats after 18 h at dose of 1 g/kg intraperitoneally
[11] = tested on: Rattus norvegicus; assay: Concentration of C24:1 ceramide in liver of D-galactosamine treated rats after 18 hr at dose of 1 g/kg intraperitoneally
[12] = tested on: Rattus norvegicus; assay: Concentration of C16:0 ceramide in liver of D-galactosamine treated rats after 18 hr at dose of 1 g/kg intraperitoneally
[13] = tested on: Rattus norvegicus; assay: Plasma GOT level was observed after 24 hr of D-galactosamine administration at 1 g/kg intraperitoneally
[14] = tested on: Rattus norvegicus; assay: Concentration of C24:0 ceramide in plasma of D-galactosamine treated rats after 18 hr at dose of 1 g/kg intraperitoneally
[15] = tested on: Rattus norvegicus; assay: Concentration of C22:0 ceramide in liver of D-galactosamine treated rats after 18 hr at dose of 1 g/kg intraperitoneally
[16] = tested on: Rattus norvegicus; assay: Concentration of C22:2 ceramide in liver of D-galactosamine treated rats after 18 hr at dose of 1 g/kg intraperitoneally
[17] = tested on: Rattus norvegicus; assay: Concentration of C22:2 ceramide in plasma of D-galactosamine treated rats after 24 hr at dose of 1 g/kg intraperitoneally
[18] = tested on: Rattus norvegicus; assay: Plasma GPT level was observed after 24 hr of D-galactosamine administration at 1 g/kg intraperitoneally
[19] = tested on: Rattus norvegicus; assay: Concentration of C24:0 ceramide in liver of D-galactosamine treated rats after 18 hr at dose of 1 g/kg intraperitoneally
[20] = tested on: Rattus norvegicus; assay: Concentration of C16:0 ceramide in plasma of D-galactosamine treated rats after 18 h at dose of 1 g/kg intraperitoneally
[21] = tested on: Rattus norvegicus; assay: Concentration of C16:0 ceramide in plasma of D-galactosamine treated rats after 24 hr at dose of 1 g/kg intraperitoneally
[22] = tested on: Rattus norvegicus; assay: Concentration of C16:0 ceramide in liver of D-galactosamine treated rats after 24 hr at dose of 1 g/kg intraperitoneally
[23] = tested on: Rattus norvegicus; assay: Concentration of C20:0 ceramide in plasma of D-galactosamine treated rats after 18 hr at dose of 1 g/kg intraperitoneally
[24] = tested on: Rattus norvegicus; assay: Concentration of C24:2 ceramide in liver of D-galactosamine treated rats after 18 hr at dose of 1 g/kg intraperitoneally
[25] = tested on: Rattus norvegicus; assay: Concentration of C20:0 ceramide in liver of D-galactosamine treated rats after 18 h at dose of 1 g/kg intraperitoneally
[26] = tested on: Rattus norvegicus; assay: Concentration of C22:2 ceramide in plasma of D-galactosamine treated rats after 18 hr at dose of 1 g/kg intraperitoneally
[27] = tested on: Rattus norvegicus; assay: Plasma GOT level was observed after 18 hr of D-galactosamine administration at 1 g/kg intraperitoneally
[28] = tested on: Rattus norvegicus; assay: Concentration of C24:1 ceramide in liver of D-galactosamine treated rats after 24 hr at dose of 1 g/kg intraperitoneally
[29] = tested on: Rattus norvegicus; assay: Concentration of C24:2 ceramide in plasma of D-galactosamine treated rats after 18 hr at dose of 1 g/kg intraperitoneally
[30] = tested on: Rattus norvegicus; assay: Concentration of C24:0 ceramide in liver of D-galactosamine treated rats after 24 hr at dose of 1 g/kg intraperitoneally
[31] = tested on: Rattus norvegicus; assay: Concentration of C20:0 ceramide in liver of D-galactosamine treated rats after 24 hr at dose of 1 g/kg intraperitoneally
[32] = tested on: Rattus norvegicus; assay: Concentration of C22:1 ceramide in liver of D-galactosamine treated rats after 24 hr at dose of 1 g/kg intraperitoneally
[33] = tested on: Rattus norvegicus; assay: Concentration of C22:0 ceramide in liver of D-galactosamine treated rats after 24 hr at dose of 1 g/kg intraperitoneally
[34] = tested on: Rattus norvegicus; assay: Concentration of C24:1 ceramide in plasma of D-galactosamine treated rats after 24 hr at dose of 1 g/kg intraperitoneally
[35] = tested on: Rattus norvegicus; assay: Concentration of C24:1 ceramide in plasma of D-galactosamine treated rats after 18 hr at dose of 1 g/kg intraperitoneally
[36] = tested on: Rattus norvegicus; assay: Concentration of C18:0 ceramide in liver of D-galactosamine treated rats after 18 hr at dose of 1 g/kg intraperitoneally

Compound: N[C@H]1C(O)O[C@H](CO)[C@@H](O)[C@@H]1O (stereo partly specified) [GLUCOSAMINE]
- Activity [1]: 5.45 nmol/g tissue
- Activity [2]: 1208 Karmen
- Activity [3]: 0.65 nmol/g tissue
- Activity [4]: 7 nmol/g tissue
- Activity [5]: 12.4 nmol/g tissue
- Activity [6]: 11.5 nmol/g tissue
- Activity [7]: 4.6 nmol/g tissue
- Activity [8]: 26.31 nmol/g tissue
- Activity [9]: 0.9 nmol/g tissue
- Activity [10]: 0.18 nmol/g tissue
- Activity [11]: 59.6 nmol/g tissue
- Activity [12]: 43.9 nmol/g tissue
- Activity [13]: 18480 Karmen
- Activity [14]: 6.31 nmol/g tissue
- Activity [15]: 37.8 nmol/g tissue
- Activity [16]: 4.8 nmol/g tissue
- Activity [17]: 2.33 nmol/g tissue
- Activity [18]: 7280 Karmen
- Activity [19]: 173.7 nmol/g tissue
- Activity [20]: 1.06 nmol/g tissue
- Activity [21]: 3.13 nmol/g tissue
- Activity [22]: 36.2 nmol/g tissue
- Activity [23]: 0.42 nmol/g tissue
- Activity [24]: 12.4 nmol/g tissue
- Activity [25]: 3.9 nmol/g tissue
- Activity [26]: 2.57 nmol/g tissue
- Activity [27]: 2516 Karmen
- Activity [28]: 67.2 nmol/g tissue
- Activity [29]: 0.98 nmol/g tissue and 1.94 nmol/g tissue
- Activity [30]: 166.3 nmol/g tissue
- Activity [31]: 5.6 nmol/g tissue
- Activity [32]: 7.1 nmol/g tissue
- Activity [33]: 35.6 nmol/g tissue
- Activity [34]: 13.83 nmol/g tissue
- Activity [35]: 5.78 nmol/g tissue
- Activity [36]: 11.1 nmol/g tissue
